# From publication PMC10531311, “Anti-Inflammatory Activities of 8-Benzylaminoxanthines Showing High Adenosine A2A and Dual A1/A2A Receptor Affinity” (International Journal of Molecular Sciences, 2023)
# Where two headings read alike, the source gives them in different places.
# Legend:
# [1] = system: HepG2 cells; assay: Hepatotoxicity, MTS cell viability; assay type: cell-based, human; details: 0.098 μM to 100 μM, 48 h
# Experimental: Drug safety is a critical step in the process of drug development. […] In our studies, neurotoxicity and hepatotoxicity were evaluated in SH-SY5Y and HepG2 cells, respectively. The compounds were tested at 11 concentrations from 0.098 μM to 100 μM (see Figure 5). Cell viability was assessed after incubation for 24 h with the SH-SY5Y line and for 48 h with the HepG2 line.
# To evaluate neurotoxicity and hepatotoxicity, the human neuroblastoma cell line SH-SY5Y (ATCC® no. CRL-2266™) and hepatoma cell line HepG2 (ATCC® no. HB-8065™) were used, respectively. The cells (SH-SY5Y: 5 × 10^3 cells/100μL/well and HepG2: 7 × 10^3 cells/100 μL/well) were seeded in transparent 96-well plates (Nunc) in DMEM supplemented with 10% FBS and cultured overnight. The next day, the medium was changed to medium containing dimethylsulfoxide (DMSO < 0.1%, vehicle control) or an increasing concentration of compounds MZ-1483 (19), MZ-1490 (22) and MZ-1495 (24) ([…]–100 × 10^−6 M). To perform dose-response analysis, two-fold serial dilutions (11 points) were prepared. Treatment with compounds was performed for 48 h. After the incubation time, the cell viability was examined using an MTS-based [3-(4,5-dimethylthiazol-2-yl)-5-(3-carboxymethoxyphenyl)-2-(4-sulfophenyl)-2 H tetrazolium] CellTiter96® AQueous One Solution Cell Proliferation Assay (Promega, Madison, WI, USA) following the manufacturer’s protocol. Briefly, 20 μL of MTS solution was pipetted into each well containing 100 μL of culture or culture medium (negative control) and incubated at 37 °C for 1 h. After incubation time, formazan product turnover absorbance was measured at 490 nm using the microplate reader (Tecan Spark®, Tecan Group Ltd., Maennedorf, Switzerland). A reference wavelength of 630 nm was used.
# [2] = Precipitation in culture medium seen under inverted microscope; assay type: physicochemical; details: 25 μM, 50 μM, 100 μM
# [3] = PAMPA blood brain barrier permeability; assay type: in vitro ADME
# Experimental: The ability of compounds, especially those intended to act in the CNS, to penetrate the blood-brain barrier (BBB) is an important property to consider in the initial stages of drug candidate screening. The PAMPA assay is a commonly used test to assess the passive permeation of the BBB [17]. In our study, caffeine was used as a highly permeable compound. […] After 5 h of incubation at room temperature, the results were analyzed by LC-MS, and the permeability coefficients (Pe) were calculated.
# For permeability evaluation, a PAMPA Gentest™ pre-coated […] system, provided by Corning (Tewksbury, MA, USA), was used. The precise procedure was previously described. The permeability coefficient Pe was calculated based on the given equations. Concentrations of the tested compounds in the apical and basolateral wells were determined by LC/MS analysis using an internal standard.
# [4] = target: T1, human adenosine A2AR (Homo sapiens, UniProt P29274); assay: Radioligand binding at human adenosine A2A receptor vs. [3H]MSX-2; details: for potency as A2AR ligand compared with A1R: from Ki values of Table 1; for Ki: human recombinant receptor in CHO cells, read-out: A2AR vs. [³H]MSX-2 Ki ± SEM
# T1 construct: expressed in transfected cells; host or cells: CHO cells
# Experimental: Affinities for adenosine receptors were evaluated in radioligand binding assays as previously described. Human adenosine receptors were stably expressed in CHO cells. The following radioligands were used: [^3H]2-chloro-N^6-cyclopentyladenosine ([^3H]CCPA) for A1R; [^3H]3-(3-hydroxypropyl)-7-methyl-8-(m-methoxystyryl)-1-propargylxanthine ([^3H]MSX-2) for A2AR; [^3H]8-(4-(4-(4-chlorophenyl)piperazine-1-sulfonyl)phenyl)-1-propylxanthine ([^3H]PSB-603) for A2BR; [^3H]phenyl-8-ethyl-4-methyl-(8R)-4,5,7,8-tetrahydro-1H-imidazo [2,1-i]purine-5-one ([^3H]PSB-11) for A3R. Initially, compounds were tested at a concentration of 1 µM. […] At least three independent experiments were performed. Data were analyzed using GraphPad PRISM version 5.0 or higher (Graph Pad, San Diego, CA, USA). Ki were calculated using the Cheng–Prusoff equation.
# [5] = 100 μM in PBS, 5 h, room temperature, triplicate
# [6] = 100 μM in PBS, 5 h, room temperature, triplicate, read-out: Pe ± SD
# T1 sequence (P29274 whole entry): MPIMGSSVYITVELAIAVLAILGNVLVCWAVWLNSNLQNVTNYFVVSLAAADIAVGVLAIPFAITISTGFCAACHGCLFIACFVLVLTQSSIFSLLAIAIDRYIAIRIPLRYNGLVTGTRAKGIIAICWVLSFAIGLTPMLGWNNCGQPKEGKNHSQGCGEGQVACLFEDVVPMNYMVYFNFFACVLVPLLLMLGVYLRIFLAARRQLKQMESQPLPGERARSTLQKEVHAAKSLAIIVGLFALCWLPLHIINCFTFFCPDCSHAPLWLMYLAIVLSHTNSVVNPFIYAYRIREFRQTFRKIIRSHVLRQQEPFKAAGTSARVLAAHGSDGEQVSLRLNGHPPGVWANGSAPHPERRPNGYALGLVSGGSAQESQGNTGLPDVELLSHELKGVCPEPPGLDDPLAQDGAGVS
Drug Retention [3],"Pe ± SD [3, 5]","Papp at 5 h, 100 μM [3, 6]","Papp at 5 h, 100 μM ([3]; read-out: Permeable)",potency as A2AR ligand compared with A1R [4],Ki [4],melting point,SMILES,"hepatotoxicity, cell viability (in words) [1]",behaviour in the culture medium at the highest concentrations [2]
51.78%,greater than 1.5 10^−6 cm/s,3.13 ± 0.82 ×10⁻⁶ cm/s,≥ 1.5 ×10⁻⁶ cm/s,four times more potent as A2AR ligand,96 ± 31 nM,223 to 225 °C,"C#CCn1c(=O)c2c(nc(NCc3ccccc3Cl)n2C)n(C)c1=O [compound 19, 8-((2-Chlorobenzyl)amino)-3,7-dimethyl-1-(prop-2-yn-1-yl)-3,7-dihydro-1H-purine-2,6-dione]",high safety profile,precipitated and formed crystals in the culture medium
68.62%,0.37 10^−6 cm/s,0.37 ± 0.01 ×10⁻⁶ cm/s,≤ 1.5 ×10⁻⁶ cm/s,twice more potent as A2AR ligand,62 ± 5 nM,276 to 278 °C,"C#CCn1c(=O)c2c(nc(NCc3c(F)cccc3Cl)n2C)n(C)c1=O [compound 22, 8-((2-Chloro-6-fluorobenzyl)amino)-3,7-dimethyl-1-(prop-2-yn-1-yl)-3,7-dihydro-1H-purine-2,6-dione]",high safety profile,precipitated and formed crystals in the culture medium
93.30%,0.89 10^−6 cm/s,0.89 ± 0.71 ×10⁻⁶ cm/s,≤ 1.5 ×10⁻⁶ cm/s,equal potency for both receptors,77 ± 24 nM,248 to 250 °C,"C#CCn1c(=O)c2c(nc(NCc3cccc(Br)c3)n2C)n(C)c1=O [compound 24, 8-((3-Bromobenzyl)amino)-3,7-dimethyl-1-(prop-2-yn-1-yl)-3,7-dihydro-1H-purine-2,6-dione]",high safety profile,precipitated and formed crystals in the culture medium
